Laboratory results reported in article PMC10363032 (Cancer Chemotherapy and Pharmacology, 2023).

Assay: plasma pharmacokinetics of probe cocktail substrates and metabolites with and without adavosertib in patients
Conditions: for increase in Cmax on adavosertib co-administration / increase in exposure (AUC0–12) on adavosertib co-administration / increase in exposure (AUC0–t) on adavosertib co-administration: adavosertib 225 mg bid vs cocktail alone; for Point estimates of the geometric LS mean ratios S + AD/S, % (90% CI): AUC / Point estimates of the geometric LS mean ratios S + AD/S, % (90% CI): AUC0–t / Point estimates of the geometric LS mean ratios S + AD/S, % (90% CI): Cmax: substrate + adavosertib 225 mg bid vs substrate alone; for Vd/F: Mean Vz/F, L (SD)
Experimental: This sampling period was selected based on the half-lives of the probe substrates.
Plasma concentrations for caffeine, paraxanthine, omeprazole, 5-HO, midazolam, and 1ʹ-HM were all determined by high-performance liquid chromatography–tandem mass spectrometry (HPLC–MS/MS) at Labcorp Bioanalytical Laboratories (Madison, WI, USA).
Plasma concentrations of caffeine and paraxanthine collected with K2EDTA as anticoagulant were determined by HPLC–MS/MS detection simultaneously. The standard curves of caffeine and paraxanthine both ranged from 25.0 to 20,000 ng/mL. […] The lower limit of quantification (LLOQ) was 25.0 ng/mL for caffeine and paraxanthine.
Plasma concentrations of omeprazole and 5-HO were collected with lithium heparin as anticoagulant and were determined by HPLC–MS/MS detection simultaneously. […] The LLOQ was 20.0 nM for omeprazole and 5-HO.
Plasma concentrations of midazolam and 1ʹ-HM were collected with K2EDTA as anticoagulant and were determined by HPLC–MS/MS detection simultaneously. The standard curves of midazolam and 1ʹ-HM both ranged from 0.100 to 100 ng/mL. […] The LLOQ was 0.1 ng/mL for midazolam and 1ʹ-HM.
PK parameters were derived using non-compartmental methods with Phoenix® WinNonlin® version 6.4 (Certara, LP, Princeton, NJ, USA). All descriptive and inferential statistical computations were performed using SAS® version 9.1 (SAS Institute, Cary, NC, USA).

[1] = − AD (cocktail alone, period 1)

Structure (SMILES): OCc1ncc2n1-c1ccc(Cl)cc1C(c1ccccc1F)=NC2 [1ʹ-HM, 1ʹ-hydroxymidazolam]
- increase in Cmax on adavosertib co-administration: 33%
- increase in exposure (AUC0–12) on adavosertib co-administration: 54%
- increase in exposure (AUC0–t) on adavosertib co-administration: 58%
- Point estimates of the geometric LS mean ratios S + AD/S, % (90% CI): AUC: 153.5 (131.0–179.8) %
- Point estimates of the geometric LS mean ratios S + AD/S, % (90% CI): AUC0–t: 158.2 (139.1–180.0) %
- Point estimates of the geometric LS mean ratios S + AD/S, % (90% CI): Cmax: 133.4 (106.5–167.1) %
- Mean MR (metabolic ratio in relation to parent compound), AUC (− AD): 0.41
- Mean MR (metabolic ratio in relation to parent compound), AUC0–t (− AD): 0.43
- Mean MR (metabolic ratio in relation to parent compound), Cmax (− AD): 0.47
- Mean t½ h (SD) [1]: 7.2 (6.1) h
- Median tmax, h (range) [1]: 0.5 (0.3–2.1) h

Structure (SMILES): COc1ccc2nc([S+]([O-])Cc3ncc(CO)c(OC)c3C)[nH]c2c1 (stereo not shown) [5-HO, 5-hydroxyomeprazole]
- Mean MR (metabolic ratio in relation to parent compound), AUC (human, in vivo): 0.50
- Mean MR (metabolic ratio in relation to parent compound), AUC0–t (human, in vivo): 0.73
- Mean MR (metabolic ratio in relation to parent compound), Cmax (human, in vivo): 0.53
- Mean t½ h (SD) (human, in vivo): 2.7 (1.7) h
- Median tmax, h (range) (human, in vivo): 3.0 (0.7–6.0) h

Structure (SMILES): Cn1c(=O)c2c(ncn2C)n(C)c1=O [Caffeine, caffeine, reference compound]
- Mean CL/F, L/h (SD) (human, in vivo): 5.7 (2.5) L/h
- Mean t½ h (SD) (human, in vivo): 6.4 (3.8) h
- Median tmax, h (range) (human, in vivo): 0.5 (0.3–3.0) h
- Vd/F (human, in vivo): 39.3 L

Structure (SMILES): Cc1ncc2n1-c1ccc(Cl)cc1C(c1ccccc1F)=NC2 [Midazolam, midazolam, reference compound]
- increase in Cmax on adavosertib co-administration: 39%
- increase in exposure (AUC0–12) on adavosertib co-administration: 55%
- increase in exposure (AUC0–t) on adavosertib co-administration: 55%
- half-life (human, in vivo): 330 min
- Vd/F (human, in vivo, + AD (adavosertib 225 mg bid, period 2)): 364 L
- Vd/F (human, in vivo, − AD (cocktail alone, period 1)): 410 L
- Point estimates of the geometric LS mean ratios S + AD/S, % (90% CI): AUC: 155.3 (138.6–173.9) %
- Point estimates of the geometric LS mean ratios S + AD/S, % (90% CI): AUC0–t: 155.2 (140.5–171.5) %
- Point estimates of the geometric LS mean ratios S + AD/S, % (90% CI): Cmax: 138.5 (118.9–161.3) %
- Mean CL/F, L/h (SD) [1]: 59.0 (34.3) L/h
- Median tmax, h (range) [1]: 0.5 (0.2–1.0) h

Structure (SMILES): COc1ccc2[nH]c([S+]([O-])Cc3ncc(C)c(OC)c3C)nc2c1 (stereo not shown) [Omeprazole, omeprazole, reference compound]
- Mean CL/F, L/h (SD) (human, in vivo): 13.3 (10.5) L/h
- Median tmax, h (range) (human, in vivo): 3.0 (0.7–6.0) h
- Vd/F (human, in vivo): 28.3 L
- half-life (human, in vivo, Mean t½ h (SD)): 120 min

Structure (SMILES): Cn1c(=O)[nH]c2ncn(C)c2c1=O [Paraxanthine, paraxanthine]
- Mean MR (metabolic ratio in relation to parent compound), AUC (human, in vivo): 0.65
- Mean MR (metabolic ratio in relation to parent compound), AUC0–t (human, in vivo): 0.54
- Mean MR (metabolic ratio in relation to parent compound), Cmax (human, in vivo): 0.23
- Median tmax, h (range) (human, in vivo): 8.0 (4.0–11.8) h
- half-life (human, in vivo, Mean t½ h (SD)): 420 min
